Here are results for eight substances from patent publication US20080280934A1, “Method of Preparing Porphyrin Derivatives, Porphyrin Derivatives, Uses Thereof and Pharmaceutical Compositions” (priority 2003, published 2008).

Data set [1] is described as follows: maximum absorption wavelength (λmax). The class given is physicochemical. The note with it: for maximum absorption wavelength: in both dichloromethane and methanol; for λmax / absorption maximum: solvent not stated. The method, then: Refluxing of pure 4a in trichloroacetic acid at 175° C. leads surprising to a new peri-annulated quinoporphyrin-product (5a). The oxidizing agent performing the final oxidation (closing the heterocyclic ring of the quinoline-ring system) to result in the new product is oxygen from the air, similar to what is known for other reactions involving porphyrins (see Woodward, J., Am.. Chem. Soc.. (1960) […]., pp. 3800-3802). The λmax of this new compound 5a is, compared with mesoporphyrindimethylester 1, shifted towards the red (respective values for λmax are: 567 nm and 638 nm).
If desired the metal ion used (here nickel) may be removed in a conventional manner (5 min. conc. sulphuric acid at room temperature, the time required to dissolve completely), yielding the corresponding compounds 6a-6d. Noteworthy are the maximum absorption wavelengths for 6a, 6b, 6c and 6d which are 681, 688, 688 and 683 nm respectively (in both dichloromethane and methanol),which are very long for entirely unsaturated porphyrin ring systems. Benzylation of the quinoline-ring system nitrogen with benzyl bromide/ potassium iodide leads to formation of a cationic benzylated quinoporphyrin (18 N-benzylquinolinium[4,4a,5,6-efg]-annulated mesoporphyrin dimethylester with an absorption maximum at 755 nm. Hydrolysation of this compound yields N-benzylquinolinium[4,4a,5,6-efg]-annulated mesoporphyrin (19).

A short description of data set [2]: solubility of the purified porphyrin in demineralized water. The class given is physicochemical. Conditions: at about pH 8, demineralized water. The method, then: A solution of 0.61 gram of 6a in 25 ml tetrahydrofuran (THF) was mixed with a solution of 0.20 gram sodium hydroxide in 120 ml of water and refluxed during 1 hour. The reaction was followed with silicagel thin layer chromatography using THF as the eluens. When the reaction is finished THF and water were removed by distillation under reduced pressure until the volume was approximately 20 ml. The crude product was purified over 10 grams of CM Sephadex cation exchanger (bead size 40-120 μm) from Sigma-Aldrich, which was first treated with 1 M hydrochloric acid and then washed with demineralized water. First the porphyrin solution was carried onto the sephadex gel, and washed with demineralized water to remove salts. The purified porphyrin was eluted with 1% ammoniumhydroxide in water. The resulting brown solution was evaporated to dryness, then demineralized water was added and again the solution was evaporated to dryness to remove traces of ammonia. […] Yet this solubility of about 0.5 mg/ml at about pH 8 is better than for other porphyrin compounds such as MTHPC which is currently used in photodynamic therapy. 0.45 grams (77%) of the dicarboxylic acid 7a was obtained.

Consider “2′-methoxycarbonylquino[4,4a,5,6-jkl]-annulated 12-demethyl-13-de[2-(methoxycarbonyl)ethyl]mesoporphyrin dimethylester [6b]”, for which the maximum absorption wavelength in data set [1] worked out at 688 nm.

Regarding “2′-methoxycarbonylquino[4,4a,5,6-qrs]-annulated 18-demethyl-17-de[2-(methoxycarbonyl)ethyl]mesoporphyrin dimethylester [6c]”, the maximum absorption wavelength in data set [1] is 688 nm. As to “N-benzylquinolinium[4,4a,5,6-efg]-annulated mesoporphyrin dimethylester [compound 18]”, the “λmax / absorption maximum” value in data set [1] is 755 nm. “mesoporphyrin dimethylester [compound 1, reference compound]”: the “λmax / absorption maximum” value in data set [1] came to 567 nm.

On to “quino[4,4a,5,6-abt]-annulated 2-demethyl-3-deethylmesoporphyrin dimethylester [6d]”, for which, in data set [1], the maximum absorption wavelength came out at 683 nm. “quino[4,4a,5,6-efg]-annulated 7-demethyl-8-deethylmesoporphyrin [7a]”: the solubility result in data set [2] is “about 0.5 mg/ml”. As for “quino[4,4a,5,6-efg]-annulated 7-demethyl-8-deethylmesoporphyrin dimethylester [6a]”, the maximum absorption wavelength in data set [1] is given as 681 nm. With “quino[4,4a,5,6-efg]-annulated 7-demethyl-8-deethylmesoporphyrin dimethylester nickel (II) complex [5a]”, in data set [1], the “λmax / absorption maximum” value is 638 nm.
